Assay results published in US20040037775A1, “Leukocyte internalized peptide-drug conjugates” (priority 2000, published 2004).
Read-outs that look alike come from different tables or passages of the source. Starred links: 1 amine or outer side, 2 acyl side, 3 side chain; linkers in the order of their positions; H or OH if unused. Positions of bridges follow the written chain, without caps; N, C: chain ends. Non-standard residues stand in square brackets, D forms with d. Residues, ends and D or L forms follow the SMILES beside them. *: point of attachment. DAMPA = CN(Cc1cnc2nc(N)nc(N)c2n1)c1ccc(C(=O)*)cc1; γGlu = O=C(O)[C@H](CCC(=O)[*:2])N[*:1]; Pen = CC(C)(S)[C@H](N)C(=O)O

Columns and labels:
KB epithelial cells = test: KB MTT assay (96 h); format: cell-based, human
Experimental: Human KB epithelial l cells: The human KB epithelial cell line was a gift from Dr Gerrit Jansen (University Free Hospital, Amsterdam, Netherlands) and was developed to overexpress the membrane folate binding protein (mFBP). Cells were cultured in RPMI 1640 medium without folic acid and supplemented with 10% heat inactivated dialyzed FCS (50 mL volume), 0.2 mL of 50 μg/mL gentamicin, 1 mL of 50 μg/mL amphotericin B, and 5 mL of 200 mM L-glutamine. The folate source, 20 nM (R,S)-LV, was added to supply cells with adequate growth conditions.
The cytotoxicity of MTX-peptide conjugates was evaluated in different cell lines, lincluding Molt-3 and L1210 T-cells, and KB epithelial cells. […] After 72 h of growth, the relative numbers of viable cells were determined according to the manufacture's protocols for measuring cytotoxicity using a Dojindo Cytotoxicity Assay Cell counting Kit-8 (CCK-8). To measure the cell viability, 10 μL of CCK-8 was added to each well and the plate was incubated for 4 h. After incubation, the absorbance at 450 nm was measured using a UV plate reader. Cell growth in the presence of different drug concentrations was calculated relative to the value obtained in the absence of the drug. […] Growth inhibition was determined by counting the cells on a Z2 model Coulter Counter (Coulter Electronics Ltd, Luton, Beds, UK). The IC50 values were calculated using Graphpad Prism software (Graphpad Software, San Diego, Calif.). […] Cells were incubated for 96 h to allow control cells to divide approximately four times before cell viability was determined by MTT assay.
The number of viable cells after a 96-h incubation was determined by assessing their ability to reduce MTT ([…]). […] The absorbance of the solution in each well was measured at 540 nm on a MCC/340 model Titertak Multiscan® plate reader (Labsystems/Flow Laboratories, Oxfordshire, UK). The results were analyzed using Ascent Research software v.2.1 (Labsystems, UK).

[1] = system: dihydrofolate reductase enzyme (DHFR); test: DHFR inhibition assay (spectrophotometric NADPH loss, Dixon plots); format: biochemical; conditions: for Ymax: from Dixon plots
Experimental: Into a 2.0 mL cuvette, a 1.0 mL solution of 0.11 mM β-NADPH and 33 μL of 2.3 mM DHFA were aliquoted and allowed to equilibrate. […] To begin the assay, 33 μL of DHFR (0.12-0.25 unit/mL with 0.1% BSA) was added to the reaction mixture. The absorbance of the reaction mixture was then recorded continuously for 5 min at 340 nm and the enzyme activity was determined by the rate of NADPH loss. Enzyme activity was determined for three different fixed concentrations of substrate (0.19, 1.9 and 10.0 mM DHFA).

Molt-3 T-cells = test: cells; format: cell-based, human
Experimental: (§1) The cytotoxicity of MTX-peptide conjugates was evaluated in different cell lines, lincluding Molt-3 and L1210 T-cells, and KB epithelial cells. […] After 72 h of growth, the relative numbers of viable cells were determined according to the manufacture's protocols for measuring cytotoxicity using a Dojindo Cytotoxicity Assay Cell counting Kit-8 (CCK-8). To measure the cell viability, 10 μL of CCK-8 was added to each well and the plate was incubated for 4 h. After incubation, the absorbance at 450 nm was measured using a UV plate reader. Cell growth in the presence of different drug concentrations was calculated relative to the value obtained in the absence of the drug. […] Serial dilutions of compounds were prepared in un-supplemented medium, and 110 μL of drug solution was aliquoted in duplicate into 900 μL cell suspensions. Control flasks were treated with 110 μL of un-supplemented medium. Cells were incubated under standard conditions for 48 h, sufficient to allow control cells to divide approximately four times. Growth inhibition was determined by counting the cells on a Z2 model Coulter Counter (Coulter Electronics Ltd, Luton, Beds, UK). The IC50 values were calculated using Graphpad Prism software (Graphpad Software, San Diego, Calif.). KB MTT Assay: KB cells were seeded in Falcons® 96 well plates (Becton-Dickinson Labware Europe, France) at a density of 1,500 cells/well in a volume of 0.18 mL culture medium and incubated under standard culture conditions for 24 h after seeding to allow entry into the exponential phase of cell growth. […] In each assay condition, control cells were treated with 20 μL of un-supplemented medium instead of drug. Cells were incubated for 96 h to allow control cells to divide approximately four times before cell viability was determined by MTT assay.

L1210-1565 cells = test: cell cycle analysis in L1210-1565 cells (PI staining, flow cytometry); format: cell-based, mouse; conditions: 1 μM
Experimental: The cell pellets were resuspended and fixed in 2.5 mL of ice-cold 70% ethanol. These pellets were stored at 4° C. before analysis using flow cytometry.
PI staining of fixed cell pellets for cell cycle analysis: One day prior to analysis, cells were centrifuged at 450×g (2500 rpm) for 5 min at room temperature and the pellets re-suspended in 0.8 mL PBS followed by addition of 0.1 mL each of 1 mg/mL ribonuclease A (RNase A; Sigma) and 0.4 mg/mL PI (Sigma). RNA digestion by RNase A is required to avoid the intercalation of PI into the double-stranded regions of this nucleic acid, which interfers with the measurement of DNA. After a 30 min incubation at 37° C., samples were wrapped in aluminum foil and stored at 4° C. overnight. Cell cycle analysis was performed using a Coulter EPICS Elite ESP (Beckman Coulter, Buckinghamshire, UK) equipped with an argon-ion laser tuned to 488 nm and red fluorescence collected at 630 nm. DNA histograms were produced and analyzed using the Winmidi software package (v.2.8, written by J.Trotter, University of Cardiff, UK).

LFA-1 = molecular target: T1, LFA-1 (Homo sapiens, UniProt P20701); test: binding to LFA-1 on Molt-3 T-cells (reduction of FITC anti-CD11a antibody binding, flow cytometry); conditions: 1, 10 or 100 μM, 45 min, 4° C.
T1 construct: endogenous in cells
Experimental: The binding of MTX-peptide conjugates to LFA-1 in response to LFA-1 activation was evaluated. As necessary, cells were activated with 10% v/v phorbol 12-myristate-13-acetate (PMA) containing medium to a final concentration of 2 μM PMA and incubated for 16 h. […] T-cells were centrifuged for 3 min at 1800 rpm, the supernatant was decanted by flicking off excess liquid, and the cells were re-suspended in 500 μL of PBS. The cells were then re-centrifuged, supernatant was removed, and cells were re-suspended again in 150 μL of PBS/BSA 1%. Next, 50 μL of an FITC-labeled anti-CD11a antibody (clone 38, 10 μg/L) was added and incubated for 45 min at 4° C. followed by washing. After the 45 min of incubation with FITC-labeled antibody, cell samples were transferred to Eppendorf tubes and centrifuged at 3000 g for 3 min. The supernatant was decanted, and the pellet was washed twice with 10 mM HEPES/PBS. The cells were then fixed with ice-cold 2% w/v paraformaldehyde/PBS for 20 min. Samples were analyzed using a Becton-Dickinson FACScan flow cytometer with 3.2.1 fl software for data analysis and acquisition.

Thymidine synthase (TS) = molecular target: T2, Thymidine synthase (TS) (Mus musculus, UniProt P07607); format: cell-based
T2 construct: endogenous in cells; host or cells: L1210-1565 mouse leukemia cells
Experimental: An equivalent amount of unsupplemented medium was added to control flasks. On the day of each experiment, a fresh solution of unlabelled deoxyuridine (dUrd) was prepared in deionized H2O (dH2O) and was added to a stock solution of [5-^3H]-dUrd (22 Ci/mmole) to give a concentration of 300 μM and a specific activity of 3.3 Ci/mmole (˜7260 dpm/pmole).
To begin the assay, the 300 μM [5-^3H]-dUrd stock solution was diluted ten fold in deionized H2O and 50 μL of this solution was added to each culture flask to give a final concentration of 0.03 μM. The rate of ^3H2O formation was measured over a 1 h period (20, 40 and 60 min) by removing a 3×0.4 mL aliquot of the cells in culture medium and mixing it with 0.4 mL of ice-cold 1.0 M perchloric acid (PCA; Sigma) in microfuge tubes. […] For each time point, radioactivity was determined by counting each vial on the tritium channel of a Tri-Carb 2000CA Model Liquid Scintillation Analyzer (Canberra Packard, Pangbourne, Berkshire, UK). Background radioactivity was assessed by cooling a flask of untreated cells on ice before the start of each experiment and adding 50 mL of the [5-^3H]-dUrd solution. Aliquots of 3×0.4 mL aliquots of cells in culture medium were added to 1.0 M PCA-containing microfuge tubes and the rate of ^3H2O release was analyzed as described above. […]

[2] = system: collagen induced rheumatoid arthritis (CIA); test: collagen induced rheumatoid arthritis (CIA) animal model; format: in vivo, mice; conditions: for mice showing signs of joint eburnation: histopathologic examination; for Total joint damage (TJD): sum of histopathology scores (0 to 3) for each limb; for arthritis index score for the limb: i.v. once daily after day 35
Experimental: […] received intravenous injections of saline while another treatment group received MTX injections (molar equivalent dosage to conjugate) for five days. Clinical arthritis symptoms were evaluated weekly for up to sixteen weeks. Arthritis development was evaluated by several parameters, including the percent of animals acquiring arthritis, arthritis index (AI) score of limbs, changes in paw-volumes and histologic score for the joint.
Mice injected with collagen adjuvant developed pronounced inflammation of the joints, as evidenced by swelling and erythema. […] Total joint damage (TJD) was calculated as the sum the scores for each limb assigned by the pathologist on a scale of 0 to 3 (where 0 is no change and 3 is gross histological change).

[3] = system: L1210 mouse leukemia cells; test: cells; format: cell-based
Experimental: as §1

IL-6 production = IL-6 production in TNF-α stimulated HCAEC monolayers; format: cell-based; conditions: 0.001-100 μM, 24 h
Experimental: The cell monolayers were cultured in vitro with the test compounds (0.001 to 100 μM) in the presence of TNF-α for 24 h. Results are expressed as the percentage of cytokine relative to the positive control or non-treated monolayers (the baseline 100% cytokine production. The control levels (mean±SE) were as follows: IL-6: 3.4±0.17 ng/mL, IL-8: 199.5±9.13 ng/mL.
It is well known that some anti-inflammatory agents can modulate the secretion of inflammatory cytokines. […] MTX-peptide(s) only begins to effectively reduce the IL-8 production at ≧0.1 μM. At ≦1 μM, neither cLAB.L nor cLBE.L affected the IL-8 production (FIG. 8B).

T2 sequence (P07607 whole entry): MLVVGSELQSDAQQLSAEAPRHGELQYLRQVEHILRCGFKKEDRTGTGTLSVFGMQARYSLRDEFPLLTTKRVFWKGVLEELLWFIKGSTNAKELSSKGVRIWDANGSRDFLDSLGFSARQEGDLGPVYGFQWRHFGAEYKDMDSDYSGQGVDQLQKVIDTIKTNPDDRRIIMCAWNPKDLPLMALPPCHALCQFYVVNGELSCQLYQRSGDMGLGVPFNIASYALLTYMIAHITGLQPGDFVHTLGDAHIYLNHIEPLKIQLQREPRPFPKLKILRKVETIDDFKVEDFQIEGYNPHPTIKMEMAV
T1 sequence (P20701 26-1170): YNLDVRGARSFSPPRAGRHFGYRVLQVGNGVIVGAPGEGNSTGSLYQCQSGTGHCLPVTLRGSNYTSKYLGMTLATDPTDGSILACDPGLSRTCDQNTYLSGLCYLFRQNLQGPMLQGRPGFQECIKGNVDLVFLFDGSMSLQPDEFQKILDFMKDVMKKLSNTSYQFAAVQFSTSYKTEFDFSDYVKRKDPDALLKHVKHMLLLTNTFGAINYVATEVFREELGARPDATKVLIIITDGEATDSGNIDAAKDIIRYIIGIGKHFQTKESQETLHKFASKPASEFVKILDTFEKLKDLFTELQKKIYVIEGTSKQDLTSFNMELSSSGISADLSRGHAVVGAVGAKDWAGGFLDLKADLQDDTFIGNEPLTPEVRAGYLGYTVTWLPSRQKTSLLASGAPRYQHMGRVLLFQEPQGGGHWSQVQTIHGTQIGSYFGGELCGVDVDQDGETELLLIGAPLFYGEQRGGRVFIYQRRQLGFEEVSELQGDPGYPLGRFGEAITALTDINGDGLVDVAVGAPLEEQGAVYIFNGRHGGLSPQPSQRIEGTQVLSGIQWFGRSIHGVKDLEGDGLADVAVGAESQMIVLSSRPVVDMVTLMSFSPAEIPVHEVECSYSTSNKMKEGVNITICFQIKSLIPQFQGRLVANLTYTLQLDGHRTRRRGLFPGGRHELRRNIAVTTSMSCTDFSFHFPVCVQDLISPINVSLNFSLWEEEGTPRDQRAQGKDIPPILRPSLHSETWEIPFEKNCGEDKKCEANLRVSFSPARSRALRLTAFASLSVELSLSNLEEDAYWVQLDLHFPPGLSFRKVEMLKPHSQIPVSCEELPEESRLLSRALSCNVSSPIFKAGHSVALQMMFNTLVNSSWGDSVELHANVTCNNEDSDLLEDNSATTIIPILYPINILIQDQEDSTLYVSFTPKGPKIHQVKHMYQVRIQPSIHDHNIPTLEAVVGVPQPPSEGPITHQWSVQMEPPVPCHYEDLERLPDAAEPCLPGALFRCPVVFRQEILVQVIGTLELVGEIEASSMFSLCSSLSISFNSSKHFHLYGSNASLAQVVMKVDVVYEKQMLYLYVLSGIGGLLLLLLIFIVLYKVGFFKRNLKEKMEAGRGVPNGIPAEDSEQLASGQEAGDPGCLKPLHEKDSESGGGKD
T1 sequence (P05107 23-769 partner): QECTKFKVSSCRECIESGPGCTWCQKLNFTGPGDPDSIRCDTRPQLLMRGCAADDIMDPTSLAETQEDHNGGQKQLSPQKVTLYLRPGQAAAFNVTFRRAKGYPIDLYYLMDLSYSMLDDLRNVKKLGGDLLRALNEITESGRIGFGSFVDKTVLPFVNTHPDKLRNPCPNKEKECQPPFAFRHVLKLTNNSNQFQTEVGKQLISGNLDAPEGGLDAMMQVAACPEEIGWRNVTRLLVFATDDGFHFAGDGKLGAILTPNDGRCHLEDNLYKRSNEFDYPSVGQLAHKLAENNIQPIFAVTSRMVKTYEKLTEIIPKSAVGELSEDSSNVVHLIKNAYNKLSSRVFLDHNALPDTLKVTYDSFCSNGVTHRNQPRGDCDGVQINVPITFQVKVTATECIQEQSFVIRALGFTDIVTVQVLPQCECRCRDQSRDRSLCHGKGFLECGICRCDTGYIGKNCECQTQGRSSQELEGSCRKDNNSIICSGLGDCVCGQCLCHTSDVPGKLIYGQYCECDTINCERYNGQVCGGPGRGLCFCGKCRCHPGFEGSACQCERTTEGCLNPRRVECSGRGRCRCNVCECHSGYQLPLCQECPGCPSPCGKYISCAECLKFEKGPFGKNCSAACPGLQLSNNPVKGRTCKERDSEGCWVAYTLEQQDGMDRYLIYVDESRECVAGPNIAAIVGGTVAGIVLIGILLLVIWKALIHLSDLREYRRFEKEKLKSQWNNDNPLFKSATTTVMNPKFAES

| Compound | IC50 (KB epithelial cells) [nM] | Km relative to that of MTX [1] [fold] | Ymax [1] | IC50 (Molt-3 T-cells; 72 h) [nM] | time of treatment after which arrest of cells in S phase was seen (L1210-1565 cells) [h] | binding to the LFA-1 receptor (LFA-1) | ability to inhibit TS after wash-out (Thymidine synthase (TS)) | inhibition of 3H2O production by TS, continuous exposure (Thymidine synthase (TS); 3 μM, 4 h incubation) | mice showing signs of joint eburnation [2] [%] | Total joint damage (TJD) [2] | arthritis index score for the limb ([2]; week 8) | arthritis index score for the limb ([2]; week 12) | IC50 ([3]; 48 h) [nM] | IC50 (KB epithelial cells; Homo sapiens, Epithelial cell) [nM] | IC50 (Molt-3 T-cells; Homo sapiens, MOLT-3, 72 h, read-out: IC50 Molt-3 T-cells) [nM] | block of IL-6 production (IL-6 production) | IC50 ([3]; Mus musculus, L1210, 48 h, read-out: IC50 L1210 mouse leukemia cells) [nM] |
| --- | --- | --- | --- | --- | --- | --- | --- | --- | --- | --- | --- | --- | --- | --- | --- | --- | --- |
| CC(C)C[C@@H]1NC(=O)[C@H](C(C)C)NC(=O)[C@H](CO)NC(=O)CNC(=O)CNC(=O)[C@H](CCCNC(=N)N)NC(=O)[C@@H]2CCCN2C(=O)[C@@H](NC(=O)CC[C@H](NC(=O)c2ccc(N(C)Cc3cnc4nc(N)nc(N)c4n3)cc2)C(=O)O)C(C)(C)SSC[C@@H](C(=O)O)NC(=O)CNC(=O)[C@H]([C@@H](C)O)NC(=O)[C@H](C(C)C)NC1=O [MTX-cIBR] ({DAMPA-γGlu}-[Pen]PRGGSVLVTGC-OH; disulfide 1-12) | > 10000 | ~15 | 4.10 ± 0.18 × 10^−4 | 2750 ± 800 | 36 | specific to the LFA-1 receptor | retained more activity than the linear conjugate | inhibited to a similar degree | 10 | 4.4±2.1 | two | zero | 5500 ± 2000 | – | – | – | – |
| CN(Cc1cnc2nc(N)nc(N)c2n1)c1ccc(C(=O)N[C@@H](CCC(=O)O)C(=O)O)cc1 [MTX, methotrexate, reference compound] | – | – | 4.30 ± 0.42 × 10^−4 | – | 24 | – | – | – | 44 | 7.4±2.5 | – | – | – | 27 | 61 ± 20 | partly block the production of IL-6 | 14 ± 4 |
